Measurements reported in US7514257B2, “Zinc finger transcription factor differentiation proteins” (ToolGen, Inc., priority 2001, dated 2009).
“And” between values parts separate entries of the source, which are not always exact repeats. Identical values can stand only once.

Key:
[1] = test system: mouse neuroblastoma Neuro2a cells; experiment: Neurite formation in Neuro2A cells; type: cell-based
Description: Mouse neuroblastoma Neuro2a cells were maintained in MEM-a media with 10% FBS and antibiotics at 37° C., in a humidified atmosphere containing 95% air and 5% CO2. Cells were seeded at 8.0·10^3 cells per 96-well culture plate and then were transfected using LIPOFECTAMINE PLUS™ reagent (Invitrogen,CA) according to the manufacturer's protocol, with 50 ng of ZFP, together with 20 ng of LacZ reporter plasmid. In vitro differentiation was carried out with or without retinoic acid (RA) (10 μM) respectively, and G418 (1 mg/ml) was treated 24 hours after transfection to reduce the number of untransfected cells. Cells were then cultured for 96 hours and then fixed, stained for β-galactosidase activity, and photographed. Among β-galactosidase-positive cells, cells were regarded as differentiated if the length of neurite extension was at least two times the diameter of the cell body.
To screen for ZFP-TFs that can induce neuronal differentiation, Neuro2A cells were transiently transfected with library plasmids and a reporter plasmid that includes the LacZ gene. LacZ expression was used to visualize the morphology of transfected cells. Because the differentiating cells grow slower than non-differentiating cells and the latter will dominate the cell population, we treated the cell culture with G418 24 hr after transfection to reduce the number of untransfected cells. After five days, cells were fixed and LacZ-stained. We then characterized the cells by their morphological characteristics. In particular, we identified cells with increased neurite length and thickness.

yeast strain YPH499a = experiment: Ketoconazole resistance of yeast transformants; type: cell-based, Saccharomyces cerevisiae; conditions: 10^7 cells plated on synthetic media
Description: To check the fungistatic response of the tester strain YPH499a to ketoconazole, 10^7 cells of the YPH499a strain were plated onto synthetic media containing different concentrations of the drug.
1×10^7 yeast cells containing plasmids from the 3-finger and 4-finger libraries were cultivated in synthetic liquid medium with 2% galactose for 3 hours at 30° C. to induce zinc finger protein expression and then were plated onto synthetic galactose agar plates containing 35 μM ketoconazole (ICN Biomedicals). After fours days of incubation at 30° C., about 120 clones formed colonies on galactose media containing 35 μM ketoconazole. These ketoconazole resistant yeast colonies were picked and streaked on fresh synthetic galactose agar plates containing 35 μM ketoconazole. 23 clones were randomly selected from the 120 resistant clones. For each of these 23 clones, the resistant phenotype was verified by plasmid rescue. […]
In one experiment, 5×10^4 cells from each transformant were serially diluted (10^−1, 10^−2, and 10^−3 fold) and spotted on galactose or glucose media supplemented without or with 35 μM ketoconazole. Growth of the cells was monitored after four days at 30° C. and compared to controls on the same plate. […]

[2] = test system: transcripts of human embryonic kidney 293 cells; experiment: Transcript profiling of 293 cells expressing F121_p65; type: cell-based
Description: DNA microarrays containing 7458 human EST clones were obtained from Genomictree (Korea). FlpTRex-293 cells stably expressing ZFP-TFs were grown with (+Dox) or without Dox) 1 μg/ml Doxycycline for 48 hours. Total RNA was prepared from each sample. RNA from the −Dox sample was used as a reference (Cy3), and +Dox as the experimental sample (Cy5). Microarray analysis was performed according to the manufacturer's protocols. Spots with sum of median less than 500 were colored red and not analyzed.
The zinc finger protein F121_p65 was expressed in human embryonic kidney 293 cells. […] F121_p65 increases transcription of insulin-like growth factor 2, among other genes.

CMV-Luc reporter = CMV-Luc reporter in 293F cells; type: cell-based, human; conditions: for CMV-Luc, average: Vector (HANLS) = 1
Description: For the luciferase assay, 5 ng of both CMV-luciferase and pRL-SV40 plasmid were co-transfected with 50 ng of ZFP coding plasmids to 293 cells seeded in wells of a 96 well plate. After 3 days of incubation, cells were harvested and the luciferase assay was done by a Dual Luciferase reporter assay system (Promega) as recommended by the manufacturer.
(§1) To investigate this point, an extensive screening had been carried out using the SEAP reporter under the control of CMV promoter (CMV-SEAP) in 293F cells. Two ZFPs, K44—11_D01 and K44—11_G12, that increase activity of the SEAP protein were isolated. These two ZFPs were further tested using two other reporter plasmids, SV40-SEAP and the luciferase reporter under the control of CMV promoter (CMV-Luc). […] Thus, K44—11_G12 may be used increase the production of proteins generally in cells, e.g., eukaryotic cells.

CMV-SEAP reporter = CMV-SEAP reporter in 293F cells; type: cell-based, human; conditions: for CMV-SEAP, average: Vector (HANLS) = 1
Description: (§2) Three days after transfection, medium was transferred to the new tubes and heated for 30 minutes at 65° C. to inactivate the endogenous alkaline phosphatase. 25 μl of medium was mixed with the same volume of 2×SEAP assay buffer (2 M Diethanolamine (pH 9.8) 10 ml, 1 M MgCl2 10 μl, 1 M homoarginine 200 μl, pNitro phenyl phosphate 44.52 mg). Absorbance at 405 nm was measured after the indicated incubation times at 37° C.
as §1

SV40-SEAP reporter = SV40-SEAP reporter in 293F cells; type: cell-based, human; conditions: for SV40-SEAP, average: Vector (HANLS) = 1
Description: as §2
To investigate this point, an extensive screening had been carried out using the SEAP reporter under the control of CMV promoter (CMV-SEAP) in 293F cells. Two ZFPs, K44—11_D01 and K44—11_G12, that increase activity of the SEAP protein were isolated. These two ZFPs were further tested using two other reporter plasmids, SV40-SEAP and the luciferase reporter under the control of CMV promoter (CMV-Luc). […]. […] Thus, K44—11_G12 may be used increase the production of proteins generally in cells, e.g., eukaryotic cells.

293 cells = experiment: Cell growth of transfected 293 cells (cell count confirming MTT assay); type: cell-based, human; conditions: for relative cell number, average: three days after transfection, relative to parental vector
Description: MTT assay is used to measure cell growth. Tetrazolium MTT reduced by metabolically active cells […] color indicates the number of viable cells. MTT assay was done using a MTT assay kit (Trevigen). The MTT assay was done at three days after transfection. Briefly, 10 μl of MTT solution was added directly to the culture medium and incubated for two hours in a CO2 incubator. Then, 100 μl of detergent solution from the MTT assay kit was added and incubated in the dark for two hours before measurement of absorbance at 570 nm was measured using a Power-Wave 340× (Bio-Tek Instrument).
To count cell numbers, 293 cells were seeded at 1.5·10^4 cells/well in a 24 well plate one day before transfection. Three days after transfection with 200 ng of ZFP-coding nucleic acid or control vector plasmids, cells were washed with PBS once and suspended in 30 ul of TE (10 mM Tris 1 mM EDTA, pH 8.0) buffer and counted by hematocytometery.
To confirm the MTT assay, the cell numbers were counted after transfection of K_D10 and K_F02 in 293 cells. The result was compared to the cell number of the well transfected with the parental vector, converted to relative percentages and shown in Table 13. […] The P values for K_D10 and K_F02 are 0.001 and 0.01, respectively. For sequence information, see FIGS. 18 and 19.

[3] = test system: SV40-SEAP reporter (pSEAP2-control); experiment: SEAP assay, SV40-SEAP reporter in 293 cells; type: cell-based, human
Description: Human embryonic kidney 293 cells were cultured with 100 μl of DMEM with 10% of FBS in a humidified atmosphere containing 95% air and 5% CO2 and seeded in wells of a 96 well plates 1 day ahead of transfection. The plasmids were isolated from individual colonies of each library separately and transfected into 293 cells LIPOFECTAMINE PLUS™ (Invitrogen) as recommended by the manufacturer. For MTT assay, 50 ng of plasmids containing zinc finger protein gene fused to the functional domains were transfected into cells cultured at 5·10^3 cells/well. For the SEAP assay, 10 ng of pSEAP2-control (Clontech) plasmid was co-transfected with 50 ng of plasmids containing zinc finger protein gene fused to the functional domains into cells cultured at 1·10^4 cells/well. The transfected cells were incubated at 37° C. for three days before assays.
as §2
We tested whether library nucleic acids could alter expression of a heterologous nucleic acid. SEAP (secretory alkaline phosphatase) was used as a reporter protein to test whether a ZFP can affect amount of foreign protein produced intracellularly.

## CC1=C(/C=C/C(C)=C/C=C/C(C)=C/C(=O)O)C(C)(C)CCC1 [RA, retinoic acid, reference compound]
[1]; RA 10 uM
  Percentage of neurite bearing cells: 14.93 ± 7.69%

## CC(=O)N1CCN(c2ccc(OCC3COC(Cn4ccnc4)(c4ccc(Cl)cc4Cl)O3)cc2)CC1 (stereo not drawn) [ketoconazole, Ketoconazole]
Yeast strain YPH499a
  ketoconazole concentration that inhibited growth of YPH499a cells: 35 µM

## F121_p65: ZFP QSHT-RSHR-RDHT-p65 (SEQ ID NO:20)
[2]; FK506-binding protein 8 (38 kD), ID N95418
  Norm ratio of medians (ROM): 8.66
[2]; Fn14 for type I transmenmbrane protein, ID AI221536
  Norm ratio of medians (ROM): 5.06
[2]; brain-specific protein p25 alpha, ID AA133959
  Norm ratio of medians (ROM): 5.71
[2]; cadherin 13, H-cadherin (heart), ID R41787
  Norm ratio of medians (ROM): 7.34 and 5.90
[2]; cellular retinoic acid-binding protein 2, ID AA598508
  Norm ratio of medians (ROM): 10.30
[2]; cyclin D1 (PRAD1: parathyroid adenomatosis, ID AA487486)
  Norm ratio of medians (ROM): 5.27
[2]; cysteine-rich protein 2, ID AA485427
  Norm ratio of medians (ROM): 6.71
[2]; growth arrest and DNA-damage-inducible, ID AA404666
  Norm ratio of medians (ROM): 5.55
[2]; insulin-like growth factor 2, ID H59614
  Norm ratio of medians (ROM): 17.71 and 16.88
[2]; insulin-like growth factor 2, ID N54596
  Norm ratio of medians (ROM): 14.40
[2]; jun B proto-oncogene, ID N94468
  Norm ratio of medians (ROM): 11.61
[2]; ketohexokinase (fructokinase), ID T61256
  Norm ratio of medians (ROM): 5.28
[2]; lymphocyte antigen 6 complex, locus H, ID AI929550
  Norm ratio of medians (ROM): 5.50
[2]; nuclear factor of activated T-cells, ID AA679278
  Norm ratio of medians (ROM): 9.64
[2]; protein phosphatase 2, regulatory subunit, ID R59165
  Norm ratio of medians (ROM): 9.89 and 8.60
[2]; protein tyrosine phosphatase, receptor, ID R45941
  Norm ratio of medians (ROM): 16.45
[2]; putative gene product, ID H09111
  Norm ratio of medians (ROM): 12.35
[2]; tumor necrosis factor (ligand) superfamily, ID AI347622
  Norm ratio of medians (ROM): 6.15
[2]; unnamed (—), ID AA045731
  Norm ratio of medians (ROM): 5.27
[2]; zinc finger protein homologous to Zfp-36, ID R38383
  Norm ratio of medians (ROM): 6.46

## K44_11_D01: ZFP QSHV-QSNI-QTHR1-CSNR1 with kid repression domain (SEQ ID NO:14)
CMV-Luc reporter
  activation of CMV-Luciferase (in words): not the CMV-Luciferase
  CMV-Luc, average: 0.87
CMV-SEAP reporter
  increase of SEAP activity compared to parental plasmid (vector): approximately 3 fold
  CMV-SEAP, average: 3.49
SV40-SEAP reporter
  activation of SV40-SEAP (in words): showed activation of SV40-SEAP
  SV40-SEAP, average: 3.66

## K44_11_G12: ZFP QSHV-VSTR-RDNQ-QTHR1 with kid repression domain (SEQ ID NO:16)
CMV-Luc reporter
  activation of CMV-luciferase: 2-3 fold
  CMV-Luc, average: 2.75
CMV-SEAP reporter
  increase of SEAP activity compared to parental plasmid (vector): approximately 3 fold
  CMV-SEAP, average: 2.82
SV40-SEAP reporter
  activation of SV40-SEAP: 2-3 fold
  SV40-SEAP, average: 2.14

## K_D10: ZFP QSHV-WSNR-WSNR-RDNQ with kid repression domain (SEQ ID NO:10)
293 cells
  inhibition of cell growth compared to parental vector: approximately 3 fold
  relative cell number, average: 27.4%

## K_F02: ZFP DSAR2-RDKR-RDER1-QTHR1 with kid repression domain (SEQ ID NO:12)
293 cells
  activation of cell growth compared to the control: 2.7 fold
  relative cell number, average: 279.3%

## Neuro1-p65: chimeric ZFP QSNR1-QSNK-CSNR1 with p65 activation domain (SEQ ID NO:2)
[1]; No RA
  Percentage of neurite bearing cells: 42.39 ± 5.56%
[1]; RA 10 uM
  Percentage of neurite bearing cells: 41.59 ± 6.46%
[1]; cells treated with 10 μM RA
  neuritogenesis: marked acceleration of neuritogenesis
[1]; without RA
  neuritogenesis / differentiation (length and thickness of neurites): most prominent effect on differentiation

## P_B08: ZFP QSNR1-DSNR-DSNR with p65 activation domain (SEQ ID NO:8)
[3]; SEAP reporter activity, three days after transfection
  Absorbance (405 nm): 2.40
[3]; Vector (HANLS) = 1
  SV40-SEAP reporter, average: 16.51
[3]; retest
  increase of SEAP activity compared to parental plasmid: approximately 16 fold
